Test results: patent US10041047B2, “Compositions and methods for epithelial stem cell expansion and culture” (The Brigham and Women's Hospital, Inc., priority 2013, dated 2018)

Experiments:
Assay type in all cases: cell-based, mouse
[1] = system: Lgr5+ stem cells in small intestinal crypts; assay: Small intestinal crypt culture from Lgr5-GFP mice in Matrigel: cell proliferation and Lgr5-GFP expression
Procedure: Crypts and single Lgr5-GFP cells were isolated as previously described (Sato et al., 2009). Briefly, the proximal half of the small intestine was harvested, opened longitudinally, and washed with cold PBS to remove luminal content. The tissue was then cut into 2-4 mm pieces with scissors and further washed 5-10 times with cold PBS by pipetting up and down using a 10-ml pipette. Tissue fragments were incubated with 2 mM EDTA in PBS for 30 min on ice. After removal of EDTA, tissue fragments were washed with PBS to release crypts. Supernatant fractions enriched in crypts were collected, passed through a 70 μm cell strainer and centrifuged at 300 g for 5 minutes. The cell pellet was re-suspended with cell culture media without growth factors and centrifuged at 150 g to remove single cells. Crypts were then cultured or used for single cell isolation. To obtain single cells, crypts were incubated in culture medium for 45 minutes at 37° C. and triturated with a glass pipette. Dissociated cells were passed through 20 μm cell strainer, negative stained with propidium iodide and single viable GFP-high cells were sorted by flow cytometry (FACS Aria, BD) as previously described (Sato et al., 2009). Small intestinal crypts isolated from Lgr5-EGFP-ires-CreERT2 mice were embedded in Matrigel and cultured under conventional culture conditions in the presence of EGF, Noggin and R-spondin 1 (collectively referred to as ENR) leading to organoids with crypts and villus-like domains and GFP^+ cells at the crypt tips, consistent with previous reports (Sato et al., 2009). Isolated crypts or single cells were cultured as previously described (Sato et al., 2009) with minimal modification. Briefly, crypts or single cells were entrapped in Matrigel and plated at the center of wells in a 24-well plate. After polymerization of Matrigel (growth factor reduced; BD Bioscience), 500 μl of culture medium (Advanced DMEM/F12 (Life Technologies)) was added containing growth factors including EGF (50 ng/ml, Life Technologies), Noggin (100 ng/ml, Peprotech) and R-spondin 1 (500 ng/ml, R&D) and small molecules including CHIR99021 (3 μM, Stemgent) and Valproic Acid (1 mM, Sigma-Aldrich). For comparison of different culture conditions, small molecules or growth factors were added to freshly isolated crypts immediately after plating in Matrigel to test the ability to minimize potential differentiation of the ISC within the crypts and thus sustain crypt cultures. Cell culture media was changed every other day. For single cell culture, cells were embedded in Matrigel containing Jagged-1 peptide (1 μM; AnaSpec) and Y-27632 (10 μM; Tocris) was added for the first 2 days. Cells were passaged either as cell colonies as previously described (Sato et al., 2009) or as single cells. For single cell passage, cell culture medium was removed and Accutase (Life Technologies) was added. After incubation at 37° C. for 10-20 minutes, cell colonies were dissociated into single cells by pipetting. Cells were then washed, embedded in fresh Matrigel and plated into 24-well plates. Cells cultured in the CV condition were passaged every 6 days at a 1:20 split ratio. Approximately half of the cultured crypts contained GFP+ cells, which is consistent with the in vivo GFP expression of Lgr5-GFP mice (FIG. 1).
The growth factors used in the ENR condition provide essential, but not adequate cues to sustain the self-renewal of Lgr5^+ stem cells. To identify factors essential to maintaining the self-renewal status of intestinal stem cells, selected small molecules that modulate signaling pathways of ISCs, such as Wnt, Notch, and BMP, were tested under the ENR condition, using the Lgr5-GFP reporter.
CHIR is a highly-specific GSK3 inhibitor that activates the Wnt/β-catenin signaling pathway (Bain et al., 2007), and has been used to maintain the self-renewal state of embryonic stem cells (Ying et al., 2008). […]

Lgr5+ stem cells [2] = assay: Quantitative real-time PCR of mature intestinal epithelial cell markers and Lgr5, 6 day culture (FIG. 6D)
Procedure: FIGS. 6A-6D depict maintenance of Lgr5+ stem cell self-renewal by the combination of CHIR and VPA. Confocal images of Lysozyme (FIG. 6A), Ki67 (FIG. 6B) and EdU (FIG. 6C) staining of organoids cultured under the ENR condition (Upper panels) and colonies cultured in the ENR-CV condition (Lower panels) are shown. For EdU staining, cells were cultured with the thymidine analogue EdU (red) for 1 hour. In FIGS. 6B and 6C, only crypt domains contain Ki67 positive cells or incorporate EdU in the ENR condition (Upper panels) while Ki67 or EdU is present throughout the cell aggregates in the CV condition (Lower panels). FIG. 6D depicts quantitative real-time PCR analysis of relative mRNA expression of markers for mature intestinal epithelial cells cultured for 6 days under conditions as indicated (Intestinal Alkaline phosphatase [Alpi] for enterocytes, Mucin 2 [Muc2] for goblet cells, Chromogranin A [ChgA] for enteroendocrine cells, Lysozyme [Lyz] for Paneth cells, and Lgr5 for intestinal stem cells). ENR-CV(D40) indicates cells that were cultured in the CV condition for 40 days. Scale bars: 50 μm. In FIG. 6D, the series are, from left to right, Alpi, Muc2, ChgA, Lyz, and Lgr5.
As previously reported, cells in the ENR condition grew into organoids with crypt-villus structure containing all intestinal epithelial cell types, confirmed by staining of alkaline phosphatase (Alp) positive enterocytes, Mucin 2 (Muc2) positive goblet cells, Chromogranin A (ChgA) positive enteroendocrine cells, Lysozyme (Lyz) positive Paneth cells and Lgr5-GFP^+ stem cells. Lgr5^+ stem cells only reside at the tips of crypt (FIGS. 6A and 7A). […] In the CV condition, however, GFP^+ stem cells were present throughout the entire colony with minimal presence of Paneth cells (FIG. 6A) and without the presence of other cells types. Compared to ENR culture, Ki67 or EdU positive proliferating cells in the CV condition existed throughout the cell colony (FIGS. 6B and 6C). […] This expression pattern was maintained over multiple passages, and the Lgr5 expression level was maintained (FIG. 6D). […]

Lgr5+ stem cells [3] = assay: Controlled differentiation of Lgr5+ stem cells after CV culture (RT-PCR and staining of differentiation markers); conditions: colonies from 6 days CV, then 4 days with ENR plus agents (FIG. 7B)
[4] = crypts cultured 6 days, agent added to ENR condition
[5] = multiple concentrations (FIG. 9E)

Cc1cnc(-c2cnc(NCCNc3ccc(C#N)cn3)nc2-c2ccc(Cl)cc2Cl)[nH]1 [CHIR99021, 6-[[2-[[4-(2,4-Dichlorophenyl)-5-(5-methyl-1H-imidazol-2-yl)-2-pyrimidinyl]amino]ethyl]amino]-3-pyridinecarbonitrile]
GFP expression (percentage and relative GFP intensity of GFP+ cells) [1, 4]: increased the percentage and relative GFP intensity | cell proliferation of crypt cells (organoid size and cell numbers) ([1]; crypts cultured 6 days, agent added to ENR condition, compared to ENR): promoted the proliferation | need of R-Spondin1 to promote GFP expression ([1]; increasing the concentration of CHIR, crypts 6 days): eliminated the need of R-Spondin1 | Paneth cell differentiation (Lgr5+ stem cells [2]): increased | enterocyte differentiation (Lgr5+ stem cells [2]): reduces | ChgA expression (Lgr5+ stem cells [3]): did not significantly influence

CCCC(CCC)C(=O)O [Valproic Acid]
rescue of cell proliferation and GFP expression following Notch inhibition ([1]; ENR-C with DAPT 5 μM and VPA 0.25-4 mM, 3 days): rescued | GFP expression (percentage and relative GFP intensity of GFP+ cells) [1, 4]: significantly increased | GFP expression at multiple concentrations [1, 5]: maintained GFP expression | cell proliferation at higher concentration [1, 5]: marked proliferation inhibition effect | secretory differentiation (Lgr5+ stem cells [2]): decreased | ChgA expression (Lgr5+ stem cells [3]): lower level of expression | Lysozyme expression (Lgr5+ stem cells [3]): lower level of expression | Muc2 expression (Lgr5+ stem cells [3]): lower level of expression
